In assay [1] the test system is HepG2. Kind of assay: Induction of apoptosis in human HepG2 cells assessed as late apoptotic cells at 2.8 uM by Annexin V-FITC/propidium iodide staining based flow cytometry (reference value: 6.07%). The class given is functional. For orientation: A flow cytometer gives signals particle by particle.
Assay [2] concerns HepG2. Kind of assay: Induction of apoptosis in human HepG2 cells assessed as early apoptotic cells at 2.8 uM by Annexin V-FITC/propidium iodide staining based flow cytometry (reference value: 6.11%). The class given is functional.
The test system of assay [3] is HepG2. As to the kind of experiment: Induction of apoptosis in human HepG2 cells assessed as viable cells at 2.8 uM by Annexin V-FITC/propidium iodide staining based flow cytometry (reference value: 87.54%). The class given is functional. The conditions noted are these: read-out: Activity.
For assay [4], the system named is HepG2. Kind of assay: Induction of apoptosis in human HepG2 cells assessed as necrotic cells at 2.8 uM by Annexin V-FITC/propidium iodide staining based flow cytometry (reference value: 0.28%). It is filed as functional.
Assay [5] relates to PC-3. Kind of assay: cells. The conditions noted are these: Homo sapiens, PC-3, 72 h.
Description: (§1) Cytotoxicity against human PC3 cells assessed as reduction in cell viability after 72 hrs by MTT assay
Assay [6] relates to A549. Kind of assay: cells. Conditions: Homo sapiens, A549, 72 h.
Description: (§2) Cytotoxicity against human A549 cells assessed as reduction in cell viability after 72 hrs by MTT assay
In assay [7] the test system is HepG2. Kind of assay: Induction of apoptosis in human HepG2 cells assessed as viable cells at 1.3 uM by Annexin V-FITC/propidium iodide staining based flow cytometry (reference value: 87.54%). It is filed as functional. The conditions noted are these: read-out: Activity.
In assay [8] the test system is HepG2. As to the kind of experiment: Induction of apoptosis in human HepG2 cells assessed as late apoptotic cells at 1.3 uM by Annexin V-FITC/propidium iodide staining based flow cytometry (reference value: 6.07%). The class given is functional.
Assay [9] relates to HepG2. Kind of assay: Induction of apoptosis in human HepG2 cells assessed as necrotic cells at 1.3 uM by Annexin V-FITC/propidium iodide staining based flow cytometry (reference value: 0.28%). It is filed as functional.
The subject of assay [10] is HepG2. As to the kind of experiment: Induction of apoptosis in human HepG2 cells assessed as early apoptotic cells at 1.3 uM by Annexin V-FITC/propidium iodide staining based flow cytometry (reference value: 6.11%). It is filed as functional.
For assay [11], the system named is MCF7. The conditions noted are these: Homo sapiens.
Description: (§3) Cytotoxicity against human MCF7 cells assessed as reduction in cell viability after 72 hrs by MTT assay
Assay [12] deals with MCF7. As to the kind of experiment: cells. Conditions: Homo sapiens, MCF7, 72 h.
Description: as §3
The target of assay [13] is Hepatocyte growth factor receptor (Homo sapiens, UniProt P08581). As to the kind of experiment: Inhibition of c-MET (unknown origin) using FAM-labeled peptide as substrate preincubated for 10 mins followed by substrate addition by mobility shift assay.
Assay [14] concerns the target Epidermal growth factor receptor (Homo sapiens, UniProt P00533). Kind of assay: Inhibition of EGFR (unknown origin) using FAM-labeled peptide as substrate preincubated for 10 mins followed by substrate addition by mobility shift assay.
The test system of assay [15] is HepG2. Kind of assay: cells. Conditions: Homo sapiens, HepG2, 72 h.
Description: (§4) Cytotoxicity against human HepG2 cells assessed as reduction in cell viability after 72 hrs by MTT assay
Assay [16] relates to HepG2. Conditions: Homo sapiens.
Description: as §4
The target of assay [17] is T1, Receptor-type tyrosine-protein kinase FLT3 (Homo sapiens, UniProt P36888).
T1 sequence (P36888 whole entry): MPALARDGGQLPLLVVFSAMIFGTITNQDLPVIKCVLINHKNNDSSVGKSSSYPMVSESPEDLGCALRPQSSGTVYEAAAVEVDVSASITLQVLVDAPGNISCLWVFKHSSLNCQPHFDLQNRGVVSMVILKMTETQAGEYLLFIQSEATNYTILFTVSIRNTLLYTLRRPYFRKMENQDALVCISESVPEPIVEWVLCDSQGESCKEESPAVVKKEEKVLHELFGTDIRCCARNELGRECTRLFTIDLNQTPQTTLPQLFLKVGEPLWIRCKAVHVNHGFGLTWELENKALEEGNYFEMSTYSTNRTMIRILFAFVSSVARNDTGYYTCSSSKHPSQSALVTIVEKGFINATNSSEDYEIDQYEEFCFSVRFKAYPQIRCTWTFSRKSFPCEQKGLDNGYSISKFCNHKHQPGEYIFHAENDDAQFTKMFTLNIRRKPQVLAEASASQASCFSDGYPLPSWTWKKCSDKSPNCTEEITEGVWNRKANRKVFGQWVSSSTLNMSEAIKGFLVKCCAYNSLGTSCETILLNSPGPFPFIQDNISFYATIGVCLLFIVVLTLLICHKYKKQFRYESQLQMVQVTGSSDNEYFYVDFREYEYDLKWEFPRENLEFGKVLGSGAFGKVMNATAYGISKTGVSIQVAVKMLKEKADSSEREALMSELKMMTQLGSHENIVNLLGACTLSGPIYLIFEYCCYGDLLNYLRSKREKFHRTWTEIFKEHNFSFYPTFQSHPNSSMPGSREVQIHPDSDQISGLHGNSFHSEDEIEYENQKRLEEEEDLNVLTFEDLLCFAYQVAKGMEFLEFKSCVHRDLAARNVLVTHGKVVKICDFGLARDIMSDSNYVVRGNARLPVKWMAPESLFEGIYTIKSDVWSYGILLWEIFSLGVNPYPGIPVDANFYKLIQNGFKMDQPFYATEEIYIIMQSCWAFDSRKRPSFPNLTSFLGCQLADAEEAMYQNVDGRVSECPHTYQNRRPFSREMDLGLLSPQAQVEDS
As to the kind of experiment: Inhibition of FLT3 (unknown origin) using FAM-labeled peptide as substrate preincubated for 10 mins followed by substrate addition by mobility shift assay.

Assay [18] deals with HepG2. As to the kind of experiment: Induction of apoptosis in human HepG2 cells assessed as formation of chromatin condensation at 1.3 uM by acridine orange dye based inverted fluorescence microscopy. It is filed as functional, cell-based.
Assay [19] has as its target Vascular endothelial growth factor receptor 2 (Homo sapiens, UniProt P35968). As to the kind of experiment: Inhibition of VEGFR2 (unknown origin) using FAM-labeled peptide as substrate preincubated for 10 mins followed by substrate addition by mobility shift assay.
The subject of assay [20] is A549. The conditions noted are these: Homo sapiens.
Description: as §2
For assay [21], the system named is HepG2. As to the kind of experiment: Induction of apoptosis in human HepG2 cells assessed as formation of DNA fragments at 1.3 uM by acridine orange dye based inverted fluorescence microscopy. The class given is functional, cell-based.
For assay [22], the system named is HepG2. Kind of assay: Induction of apoptosis in human HepG2 cells assessed as formation of cell shrinkage at 1.3 uM by acridine orange dye based inverted fluorescence microscopy. It is filed as functional.
Assay [23] has as its target Mast/stem cell growth factor receptor Kit (Homo sapiens, UniProt P10721). Kind of assay: Inhibition of cKIT (unknown origin) using FAM-labeled peptide as substrate preincubated for 10 mins followed by substrate addition by mobility shift assay.
Assay [24] concerns PC-3. The conditions noted are these: Homo sapiens.
Description: as §1

Results on twelve molecules are retold here after ChEMBL document CHEMBL4138148, “Discovery of novel pyrrolo-pyridine/pyrimidine derivatives bearing pyridazinone moiety as c-Met kinase inhibitors” (Eur J Med Chem, 2017).

Calls of active or inactive are those of the source. No cut-off for these calls is given here.

One may read the IC50 as the concentration at which inhibition is half-maximal.

Sequence of Hepatocyte growth factor receptor (P08581 whole entry): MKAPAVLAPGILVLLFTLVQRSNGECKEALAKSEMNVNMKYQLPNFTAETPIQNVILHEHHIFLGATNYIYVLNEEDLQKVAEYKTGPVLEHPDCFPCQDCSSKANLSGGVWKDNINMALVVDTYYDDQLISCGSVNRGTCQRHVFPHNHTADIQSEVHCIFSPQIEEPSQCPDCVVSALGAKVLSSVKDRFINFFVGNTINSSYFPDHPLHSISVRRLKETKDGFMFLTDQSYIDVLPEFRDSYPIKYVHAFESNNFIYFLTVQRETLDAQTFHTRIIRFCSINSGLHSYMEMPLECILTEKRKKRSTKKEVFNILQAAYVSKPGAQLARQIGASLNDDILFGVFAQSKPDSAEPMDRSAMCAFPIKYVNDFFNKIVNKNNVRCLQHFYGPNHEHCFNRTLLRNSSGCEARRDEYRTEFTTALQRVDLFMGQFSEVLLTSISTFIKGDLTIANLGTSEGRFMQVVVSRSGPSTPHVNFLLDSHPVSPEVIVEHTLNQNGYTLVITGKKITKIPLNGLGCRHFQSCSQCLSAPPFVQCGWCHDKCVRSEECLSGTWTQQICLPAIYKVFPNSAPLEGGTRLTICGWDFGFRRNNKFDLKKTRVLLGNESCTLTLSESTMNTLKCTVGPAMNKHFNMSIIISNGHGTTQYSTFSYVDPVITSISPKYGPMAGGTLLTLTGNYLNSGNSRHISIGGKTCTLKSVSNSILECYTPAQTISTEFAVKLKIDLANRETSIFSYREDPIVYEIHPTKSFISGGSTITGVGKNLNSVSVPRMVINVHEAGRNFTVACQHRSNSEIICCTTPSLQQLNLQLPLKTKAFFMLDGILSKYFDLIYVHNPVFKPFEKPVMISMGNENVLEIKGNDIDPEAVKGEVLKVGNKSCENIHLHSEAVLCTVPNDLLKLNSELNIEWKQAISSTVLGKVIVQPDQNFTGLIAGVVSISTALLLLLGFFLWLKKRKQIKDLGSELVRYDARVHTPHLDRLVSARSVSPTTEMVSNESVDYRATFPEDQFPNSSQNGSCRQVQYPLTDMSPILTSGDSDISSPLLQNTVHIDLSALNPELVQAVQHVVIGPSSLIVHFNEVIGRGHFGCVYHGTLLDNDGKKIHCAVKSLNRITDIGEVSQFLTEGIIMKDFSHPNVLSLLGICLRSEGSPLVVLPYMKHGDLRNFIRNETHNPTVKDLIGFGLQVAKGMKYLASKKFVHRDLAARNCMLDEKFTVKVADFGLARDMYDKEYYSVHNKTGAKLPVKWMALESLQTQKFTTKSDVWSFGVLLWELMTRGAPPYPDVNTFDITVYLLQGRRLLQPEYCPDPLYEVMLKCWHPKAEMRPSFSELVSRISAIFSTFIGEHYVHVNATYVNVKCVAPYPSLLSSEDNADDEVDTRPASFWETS
Sequence of Mast/stem cell growth factor receptor Kit (P10721 whole entry): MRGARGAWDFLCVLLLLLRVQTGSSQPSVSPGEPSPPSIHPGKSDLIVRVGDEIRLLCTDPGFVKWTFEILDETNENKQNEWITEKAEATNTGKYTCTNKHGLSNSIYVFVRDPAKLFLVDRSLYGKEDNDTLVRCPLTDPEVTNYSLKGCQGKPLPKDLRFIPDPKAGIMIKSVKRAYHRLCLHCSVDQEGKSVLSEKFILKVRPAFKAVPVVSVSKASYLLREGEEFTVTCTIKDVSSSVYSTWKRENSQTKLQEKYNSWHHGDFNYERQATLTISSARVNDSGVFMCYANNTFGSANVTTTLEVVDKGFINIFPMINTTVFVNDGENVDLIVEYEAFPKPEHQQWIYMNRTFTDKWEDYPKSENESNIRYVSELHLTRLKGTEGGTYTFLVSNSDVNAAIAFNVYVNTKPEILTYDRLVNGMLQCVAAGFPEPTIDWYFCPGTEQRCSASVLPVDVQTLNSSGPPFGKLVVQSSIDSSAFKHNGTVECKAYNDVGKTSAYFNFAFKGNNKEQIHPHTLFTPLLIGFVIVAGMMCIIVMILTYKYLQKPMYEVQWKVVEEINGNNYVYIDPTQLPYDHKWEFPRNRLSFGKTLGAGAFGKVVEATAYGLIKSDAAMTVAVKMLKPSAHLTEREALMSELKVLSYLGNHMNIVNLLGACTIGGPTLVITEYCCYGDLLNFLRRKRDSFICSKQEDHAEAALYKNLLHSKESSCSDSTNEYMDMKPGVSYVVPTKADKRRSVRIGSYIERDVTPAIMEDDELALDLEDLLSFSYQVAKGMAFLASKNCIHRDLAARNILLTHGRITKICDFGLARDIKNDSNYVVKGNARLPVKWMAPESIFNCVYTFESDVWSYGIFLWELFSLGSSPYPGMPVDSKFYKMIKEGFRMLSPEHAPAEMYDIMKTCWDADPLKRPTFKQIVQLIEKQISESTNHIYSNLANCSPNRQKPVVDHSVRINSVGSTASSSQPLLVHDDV
Sequence of Epidermal growth factor receptor (P00533 whole entry): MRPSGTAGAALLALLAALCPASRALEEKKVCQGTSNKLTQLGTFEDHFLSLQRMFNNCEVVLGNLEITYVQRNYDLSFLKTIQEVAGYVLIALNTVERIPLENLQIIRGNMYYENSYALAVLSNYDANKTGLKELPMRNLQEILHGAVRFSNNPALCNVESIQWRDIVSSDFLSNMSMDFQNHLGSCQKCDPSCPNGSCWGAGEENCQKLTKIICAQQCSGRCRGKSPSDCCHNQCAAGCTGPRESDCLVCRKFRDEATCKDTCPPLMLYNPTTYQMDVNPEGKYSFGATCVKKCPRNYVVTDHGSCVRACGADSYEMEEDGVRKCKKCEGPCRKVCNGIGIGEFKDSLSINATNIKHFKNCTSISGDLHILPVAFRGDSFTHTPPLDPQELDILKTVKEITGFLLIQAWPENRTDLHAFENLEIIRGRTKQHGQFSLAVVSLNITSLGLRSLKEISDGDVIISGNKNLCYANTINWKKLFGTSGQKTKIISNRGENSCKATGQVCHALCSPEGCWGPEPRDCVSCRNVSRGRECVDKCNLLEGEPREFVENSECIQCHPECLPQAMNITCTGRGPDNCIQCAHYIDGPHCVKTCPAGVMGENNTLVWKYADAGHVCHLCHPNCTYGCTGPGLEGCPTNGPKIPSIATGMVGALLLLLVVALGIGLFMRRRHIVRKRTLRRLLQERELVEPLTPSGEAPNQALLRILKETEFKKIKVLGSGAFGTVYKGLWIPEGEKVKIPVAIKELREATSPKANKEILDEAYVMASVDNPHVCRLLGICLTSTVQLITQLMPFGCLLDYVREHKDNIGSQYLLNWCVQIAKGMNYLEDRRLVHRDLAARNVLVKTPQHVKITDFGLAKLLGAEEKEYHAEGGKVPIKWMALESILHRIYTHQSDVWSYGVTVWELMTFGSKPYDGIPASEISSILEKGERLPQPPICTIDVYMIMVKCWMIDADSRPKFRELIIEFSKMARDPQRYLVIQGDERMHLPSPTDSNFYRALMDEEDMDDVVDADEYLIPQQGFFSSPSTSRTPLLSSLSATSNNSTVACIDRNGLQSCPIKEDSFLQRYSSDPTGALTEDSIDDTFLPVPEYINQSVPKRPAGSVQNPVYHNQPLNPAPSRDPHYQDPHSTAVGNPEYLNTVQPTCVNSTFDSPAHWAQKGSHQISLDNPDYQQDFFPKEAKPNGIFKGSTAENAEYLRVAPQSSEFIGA
Sequence of Vascular endothelial growth factor receptor 2 (P35968 whole entry): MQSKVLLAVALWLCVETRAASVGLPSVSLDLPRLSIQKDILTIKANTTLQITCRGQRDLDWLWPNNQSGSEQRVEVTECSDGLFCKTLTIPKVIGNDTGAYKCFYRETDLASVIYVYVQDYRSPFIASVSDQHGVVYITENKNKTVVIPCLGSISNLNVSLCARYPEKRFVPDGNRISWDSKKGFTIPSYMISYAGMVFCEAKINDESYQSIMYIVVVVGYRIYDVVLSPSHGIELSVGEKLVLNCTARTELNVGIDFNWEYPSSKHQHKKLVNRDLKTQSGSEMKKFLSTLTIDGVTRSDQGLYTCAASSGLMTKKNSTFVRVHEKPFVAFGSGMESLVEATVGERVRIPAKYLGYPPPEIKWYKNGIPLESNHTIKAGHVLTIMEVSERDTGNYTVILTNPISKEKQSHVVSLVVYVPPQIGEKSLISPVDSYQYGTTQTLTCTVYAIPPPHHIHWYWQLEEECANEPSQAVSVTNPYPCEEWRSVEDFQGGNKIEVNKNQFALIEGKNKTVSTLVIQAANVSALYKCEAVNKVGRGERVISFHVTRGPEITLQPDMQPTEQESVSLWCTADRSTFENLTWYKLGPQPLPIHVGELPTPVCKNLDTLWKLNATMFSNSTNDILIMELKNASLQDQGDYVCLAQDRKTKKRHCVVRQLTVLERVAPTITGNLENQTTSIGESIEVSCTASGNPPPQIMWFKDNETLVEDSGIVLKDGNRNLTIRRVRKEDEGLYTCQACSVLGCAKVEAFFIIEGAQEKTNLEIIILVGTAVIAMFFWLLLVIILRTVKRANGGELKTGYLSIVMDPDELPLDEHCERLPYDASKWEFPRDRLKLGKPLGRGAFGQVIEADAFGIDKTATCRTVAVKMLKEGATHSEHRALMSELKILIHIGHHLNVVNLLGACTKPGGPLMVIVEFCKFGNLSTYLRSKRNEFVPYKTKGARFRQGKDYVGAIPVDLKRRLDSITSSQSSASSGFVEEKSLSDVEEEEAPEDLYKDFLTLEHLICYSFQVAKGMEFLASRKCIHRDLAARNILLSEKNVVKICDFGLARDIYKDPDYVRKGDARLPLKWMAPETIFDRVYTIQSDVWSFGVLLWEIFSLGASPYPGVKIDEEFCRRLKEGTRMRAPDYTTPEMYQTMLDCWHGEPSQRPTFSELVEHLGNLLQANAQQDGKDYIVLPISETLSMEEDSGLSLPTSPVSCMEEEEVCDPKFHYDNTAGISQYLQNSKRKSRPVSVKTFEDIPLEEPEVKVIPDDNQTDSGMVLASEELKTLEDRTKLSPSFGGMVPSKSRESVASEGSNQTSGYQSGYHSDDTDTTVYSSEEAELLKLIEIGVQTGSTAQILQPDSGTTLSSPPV

Take `COc1cc2c(Oc3ccc(NC(=O)C4(C(=O)Nc5ccc(F)cc5)CC4)cc3F)ccnc2cc1OCCCN1CCOCC1` [FORETINIB]: the Activity with HepG2 [1] was determined as 10.3%; in the assay on HepG2 [2], 16.09%; with HepG2 [4] it was 1.25%. Further, in the assay with HepG2 [3], the viability at 2.8 µM is 72.4%.

Take `O=C(Nc1ccc(Oc2ccnc3[nH]ccc23)cc1)c1nn(-c2ccc(Cl)c(C(F)(F)F)c2)ccc1=O`: the IC50 in the assay with PC-3 [5] was 4.63 µM; with A549 [6], 2.19 µM; with MCF7 [12], 6.27 µM; in assay [13], 0.073 µM; in assay [14], more than 10 µM; in the assay on HepG2 [15], 1.32 µM. For the same molecule, the IC50 in [17] came to 0.77 µM; in assay [19], 2.4 µM; in assay [23], 2.2 µM. Besides, the viability at 1.3 µM in the assay on HepG2 [7] came out at 62.8%. Moreover, the Activity in the assay on HepG2 [8] is 11.89%; in the assay on HepG2 [9] it was 2.31%; in the assay on HepG2 [10], 23.01%; with MCF7 [11], “Dose-dependent effect”; in the assay with HepG2 [16], “Dose-dependent effect”; in the assay on A549 [20] it was “Dose-dependent effect”. In addition, the Activity entry in the assay with PC-3 [24] was “Dose-dependent effect”. Moreover, the result in the assay on HepG2 [18], with HepG2 [21] and with HepG2 [22] was Active.

In the case of `Cc1cc(=O)n(-c2ccc(Br)cc2F)nc1C(=O)Nc1ccc(Oc2ncnc3[nH]ccc23)cc1`, the IC50 in the assay on PC-3 [5] turned out to be 2.73 µM; in the assay on A549 [6] it was 3.77 µM; with MCF7 [12] it was 3.21 µM; in assay [13] it was 20.7 µM; in the assay with HepG2 [15], 3.66 µM.

Turning to `Cc1ccc(-n2nc(C(=O)Nc3ccc(Oc4ncnc5[nH]ccc45)cc3)c(C)cc2=O)cc1`, the IC50 in the assay on PC-3 [5] was determined as 9.61 µM; with A549 [6], 6.4 µM; with MCF7 [12] it was 3.62 µM; in assay [13], 27 µM; with HepG2 [15] it was 7.46 µM.

As to `O=C(Nc1ccc(Oc2ccnc3[nH]ccc23)cc1)c1nn(-c2ccc(Cl)c(F)c2)ccc1=O`, the concentration for half-maximal inhibition (IC50) came out at 7.78 µM in the assay with PC-3 [5]; 2.58 µM in the assay on A549 [6]; 3.11 µM with MCF7 [12]; 0.17 µM in assay [13]; 5.24 µM with HepG2 [15].

Consider `Cc1cc(=O)n(-c2ccccc2OC(F)(F)F)nc1C(=O)Nc1ccc(Oc2ncnc3[nH]ccc23)cc1`, for which the IC50 came out at 22.5 µM in the assay with PC-3 [5], 16.2 µM in the assay on A549 [6], 32 µM with MCF7 [12] and 22.8 µM in the assay with HepG2 [15].

`Cn1ccc2c(Oc3ccc(NC(=O)c4nn(-c5ccc(Cl)c(F)c5)ccc4=O)cc3F)ccnc21`: the IC50 in the assay on PC-3 [5] was 17.9 µM; in the assay with A549 [6], more than 60 µM; in the assay on MCF7 [12], 16.6 µM; with HepG2 [15], 22.1 µM.

On to `Cc1ccc(-n2nc(C(=O)Nc3ccc(Oc4ncnc5[nH]ccc45)c(F)c3)c(C)cc2=O)cc1`, for which the IC50 in the assay on PC-3 [5] turned out to be 20.4 µM; in the assay with A549 [6], 18.5 µM; with MCF7 [12], 18.9 µM; with HepG2 [15] it was 18.8 µM.

`Cc1cc(=O)n(-c2ccccc2C(F)(F)F)nc1C(=O)Nc1ccc(Oc2ncnc3c2ccn3C)cc1`: the IC50 in the assay on PC-3 [5] turned out to be 19.1 µM; with A549 [6], 5.86 µM; with MCF7 [12] it was 7.84 µM; with HepG2 [15] it was 27.2 µM.

`Cc1cc(=O)n(-c2ccc(F)cc2)nc1C(=O)Nc1ccc(Oc2ncnc3[nH]ccc23)c(F)c1`: the IC50 worked out at 17.3 µM in the assay on PC-3 [5], 42.4 µM in the assay on A549 [6], 24.5 µM in the assay on MCF7 [12] and 12.8 µM in the assay on HepG2 [15].

For the molecule `Cc1cc(=O)n(-c2ccc(Br)cc2F)nc1C(=O)Nc1ccc(Oc2ncnc3[nH]ccc23)c(F)c1`, the concentration for half-maximal inhibition (IC50) with PC-3 [5] worked out at 13.3 µM; in the assay with A549 [6], 6.12 µM; in the assay with MCF7 [12], 26.6 µM; in the assay with HepG2 [15] it was 32 µM.

Turning to `Cc1cc(=O)n(-c2ccccc2OC(F)(F)F)nc1C(=O)Nc1ccc(Oc2ncnc3c2ccn3C)cc1`, the IC50 in the assay with PC-3 [5] is 5.16 µM; in the assay with A549 [6], 25.2 µM; with MCF7 [12], 27 µM; in the assay on HepG2 [15], more than 60 µM.
